System: LG0567-F671-PDC KRAS tumor spheroid viability
Experiment: Anticancer human tumor LG0567-F671-PDC patient-derived lung adenocarcinoma cell line growth inhibition [KRAS2]
Details: spheroids with HUVEC and MSC; for IC50: curve of first compound; for viability, T/C: stronger effect = lower value
Description: Multicellular complex tumor spheroid response to RAS pathway inhibitors in combination with a targeted agents in patient-derived cell lines with oncogenic KRAS variants from multiple cancer types
A high-throughput screen of multi-cell type tumor spheroids was designed to identify active combinations of targeted small molecules and KRAS pathway inhibitors. Complex spheroids include a stromal component modeled by human endothelial cells (HUVEC) and fibroblasts modeled by human mesenchymal stem cells (MSCs). The concentration ranges selected for each drug and investigational agent were based upon clinically achievable concentrations if the clinical Cmax of the agent was known.
Compounds. The drugs and investigational agents: BI-3406 (NSC825286), BAY-293 (NSC824723), batoprotafib (TNO155; NSC825523), sotorasib (AMG 510; NSC818433), MRTX1257 (NSC819558), elimusertib (BAY 1895344; NSC800525), molibresib (GSK525762; NSC774829), temuterkib (LY3214996; NSC803410), venetoclax (NSC766270), alisertib (NSC759677), olaparib (NSC753686), talazoparib (NSC767125), erdafitinib (NSC781556), ipatasertib (NSC767898), cabozantinib (NSC761068), nintedanib (NSC756659), abemaciclib (NSC768073), docetaxel (NSC628503), trametinib (NSC758246), and sapanisertib (NSC764658) were obtained from the National Cancer Institute (NCI) Developmental Therapeutics Program Chemical Repository. The FDA-approved anticancer drug set is available from the Developmental Therapeutics Program. […] The stock solutions were prepared in dimethyl sulfoxide (DMSO, Sigma-Aldrich, St. Louis, MO, cat. D2650) at 800-fold the tested concentration and stored at -70 degrees C prior to their use. All drugs and investigational agents were tested over a range starting from a high concentration at or near the clinical Cmax and decreasing in half-log increments. If the clinical Cmax for an agent had not been determined, the highest concentration tested was 10 microM.
Cell Culture. All cells were maintained in an incubator at 37 degrees C and 5% CO2 with 95% humidity. The PDC lines were cultured according to standard operating procedures established by the NCI PDMR (https://pdmr.cancer.gov/sops/default.htm). Briefly, all PDCs were thawed and cultured in Matrigel-coated flasks prepared with a working solution of 1X Ham's F-12 nutrient mix, without supplementation (Invitrogen, Waltham, MA, cat. 11765054), 100 U/mL penicillin-streptomycin (Invitrogen, cat. 15140122), and 2.5% Matrigel (Corning Inc., Corning, NY, cat. 354248) for the first three passages. All PDCs were cultured in complete DMEM/F-12 media containing advanced DMEM/F-12 (Invitrogen, cat. 12634028), 4.9% defined fetal bovine serum, heat inactivated (HyClone Laboratories Inc., Logan, UT, cat. SH30070.03HI), 389 ng/mL hydrocortisone (Sigma-Aldrich, cat. H4001), 9.7 ng/mL human EGF recombinant protein (Invitrogen, cat. PHG0313), 23.4 microg/mL adenine (Sigma-Aldrich, cat. A2786), 97.3 U/mL penicillin-streptomycin (Invitrogen, cat. 15140122), 1.9 mM L-glutamine (Invitrogen, cat. 25030081), and 9.7 microM Y-27632 dihydrochloride (Tocris Bioscience, Bristol, United Kingdom, cat. 1254). The PDCs were cultured in complete DMEM/F12 media without 9.7 microM Y-27632 dihydrochloride for at least two passages prior to the screen. The established cell line HOP-62 was cultured in RPMI 1640 medium, HEPES (Invitrogen, cat. 22400105) with 10% defined fetal bovine serum (HyClone Laboratories Inc., cat. SH30070.03) and 2 mM L-glutamine (Invitrogen, cat. 25030081). The pooled donor HUVEC were cultured in endothelial cell growth medium 2 (PromoCell, Heidelberg, Germany, cat. C-22011) and the hMSC were cultured in mesenchymal stem cell growth medium 2 (PromoCell, cat. C-28009). For all experiments, HUVEC and hMSC were used at passages </=5, while the malignant cell lines were used at passages </=15. […]
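Note: drug exposure lasted seven days after spheroids formed for three days.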
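Throughout, for viability, T/C: 100% = DMSO vehicle control viability.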

CC(=O)Nc1cccc(-n2c(=O)n(C3CC3)c(=O)c3c(Nc4ccc(I)cc4F)n(C)c(=O)c(C)c32)c1 + C=CC(=O)N1CCN(c2nc(OCC3CCCN3C)nc3c2CCN(c2cccc4cccc(C)c24)C3)CC1CC#N
IC50 (second compound 0.0316 µM): < 0.1 nM | IC50 (second compound 0.1 µM): < 0.1 nM | IC50 (second compound 0.316 µM): < 0.1 nM | IC50 (second compound 1 µM): < 0.1 nM | IC50 (second compound 3.16 µM): < 0.1 nM | viability, T/C (second compound 0.0316 µM, first compound 0.0001 µM): 36.6% | viability, T/C (second compound 0.0316 µM, first compound 0.000316 µM): 35.6% | viability, T/C (second compound 0.0316 µM, first compound 0.001 µM): 34.5% | viability, T/C (second compound 0.0316 µM, first compound 0.00316 µM): 42% | viability, T/C (second compound 0.0316 µM, first compound 0.01 µM): 24.2% | viability, T/C (second compound 0.0316 µM, first compound 0.0316 µM): 7.65% | viability, T/C (second compound 0.1 µM, first compound 0.0001 µM): 23.8% | viability, T/C (second compound 0.1 µM, first compound 0.000316 µM): 32.3% | viability, T/C (second compound 0.1 µM, first compound 0.001 µM): 56.4% | viability, T/C (second compound 0.1 µM, first compound 0.00316 µM): 24.6% | viability, T/C (second compound 0.1 µM, first compound 0.01 µM): 12.1% | viability, T/C (second compound 0.1 µM, first compound 0.0316 µM): 4.09% | viability, T/C (second compound 0.316 µM, first compound 0.0001 µM): 30% | viability, T/C (second compound 0.316 µM, first compound 0.000316 µM): 33.2% | viability, T/C (second compound 0.316 µM, first compound 0.001 µM): 39.7% | viability, T/C (second compound 0.316 µM, first compound 0.00316 µM): 22.1% | viability, T/C (second compound 0.316 µM, first compound 0.01 µM): 19.3% | viability, T/C (second compound 0.316 µM, first compound 0.0316 µM): 5.95% | viability, T/C (second compound 1 µM, first compound 0.0001 µM): 38.2% | viability, T/C (second compound 1 µM, first compound 0.000316 µM): 37.5% | viability, T/C (second compound 1 µM, first compound 0.001 µM): 23.7% | viability, T/C (second compound 1 µM, first compound 0.00316 µM): 31.7% | viability, T/C (second compound 1 µM, first compound 0.01 µM): 15.7% | viability, T/C (second compound 1 µM, first compound 0.0316 µM): 6.26% | viability, T/C (second compound 3.16 µM, first compound 0.0001 µM): 30.8% | viability, T/C (second compound 3.16 µM, first compound 0.000316 µM): 22.8% | viability, T/C (second compound 3.16 µM, first compound 0.001 µM): 12.8% | viability, T/C (second compound 3.16 µM, first compound 0.00316 µM): 12% | viability, T/C (second compound 3.16 µM, first compound 0.01 µM): 2.28% | viability, T/C (second compound 3.16 µM, first compound 0.0316 µM): 4.58%
